Laboratory results published in US11208385B2, “N-substituted imidazole carboxylate compound, preparation method and use” (priority 2017, dated 2021).
Where two headings read alike, the source gives them in different places.

Columns and labels:
SD rats [1] = system: SD rats
Experimental: 30 male SD rats weighing 250˜300 g were randomly divided into 6 groups, 5 rats for one group. […] Each drug was continually infused to rats via caudal vein, and made the righting reflex abolish, and the abolition of righting reflex was maintained for 1 hour. The wake time after drug withdrawal and the time of full recovery were recorded.

[2] = In vitro degradation experiment in rat liver homogenate (HPLC); format: in vitro ADME; conditions: for Residual rate at 5 min (%) / Residual rate at 10 min (%) / Residual rate at 20 min (%): rat liver homogenate, 37° C., 50 μg/mL
Experimental: In Vitro Degradation Experiment of Compounds.
Chromatographic condition: mobile phase is methanol: H2O=65:35, and the water phase contains 0.06% ammonium acetate; the flow rate is 1 mL/min; the column temperature is 25° C.
Apparatus: Agilent 1100 Series. Chromatographic column: Aglent Eclipse Plus C18 column, 5 μm 4.6*[…].
The linear range is 1-50 μg/mL.
After fasting for 24 h, male SD rats were treated to collect liver, and the water on the surface of liver was removed using the filter paper, then liver was weighed. […] Then, the homogenate was centrifugated at 10000 g for 20 min at the temperature of 4° C. The supernatant solution was collected, and 14 samples (2 mL) of liver homogenate were taken out and warmed to 37° C. in water bath. Each compound (content 10 mg/mL, 10 μl) was added, respectively, to make a concentration of 50 μg/mL in liver homogenate.
[…] After centrifugation, the supernatant solution was taken out and injected. The concentration of each compound at each time point was detected, that was divided by the initial concentration of each compound, to obtain the degradation ratio of each compound.

SD rats [3] = system: SD rats; remark: listed apart in the source
Experimental: 150 male SD rats weighing 250˜300 g were randomly divided into 15 groups, 10 rats for one group. […] Drugs were injected to rats via caudal vein, and the injection time was 15 seconds. The abolition of righting reflex for 30 s or above was used as the indicator producing anaesthetic effect.

corticosterone = assay: Serum corticosterone after dexamethasone suppression and ACTH stimulation in rats (ELISA); conditions: ACTH stimulation
Experimental: Male rats (250˜300 g) were chosen as test animals, and the content of corticosterone in serum of rats was measured using ELISA kit and ELISA reader. 65 SD rats were randomly divided into 13 groups, five rats for each group. […] 30 min After administration of ACTH, the concentrations of two cortical hormones in animal body were determined.

[4] = in vivo, 3 mg/kg; cited from earlier work
11-β hydroxylase = biological target: T1, 11-β hydroxylase (Homo sapiens, UniProt P15538); conditions: 11-β hydroxylase versus GABAA receptor; cited from earlier work
T1 sequence (P15538 25-503): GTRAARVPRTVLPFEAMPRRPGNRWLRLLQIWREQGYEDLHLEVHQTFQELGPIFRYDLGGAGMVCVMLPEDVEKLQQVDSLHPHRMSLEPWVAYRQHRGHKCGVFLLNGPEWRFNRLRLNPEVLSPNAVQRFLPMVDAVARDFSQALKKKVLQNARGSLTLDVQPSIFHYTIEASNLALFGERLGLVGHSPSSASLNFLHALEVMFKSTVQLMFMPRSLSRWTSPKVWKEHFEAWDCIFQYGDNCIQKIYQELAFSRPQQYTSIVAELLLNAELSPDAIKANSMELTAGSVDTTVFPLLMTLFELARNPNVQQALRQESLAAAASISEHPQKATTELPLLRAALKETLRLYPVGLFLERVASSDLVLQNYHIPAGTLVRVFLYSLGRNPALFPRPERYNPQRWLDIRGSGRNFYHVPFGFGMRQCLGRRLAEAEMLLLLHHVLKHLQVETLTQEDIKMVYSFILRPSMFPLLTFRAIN

[5] = after 1 h continual infusion, from recovery of righting reflex to free walk
[6] = after 1 h continual infusion, recovery time of righting reflex after discontinuance
[7] = single iv dose of 2ED50, 10 rats per group
[8] = single iv dose of 2ED50, from abolition to recovery of righting reflex
[9] = single iv dose of 2ED50, from recovery of righting reflex to free walk

Structure (SMILES) | Time of complete recovery (SD rats [1]; [5]) [min] | Wake time after drug withdrawal (SD rats [1]; [6]) [min] | Incidence rate (%) of muscle tremor (SD rats [1]; continual infusion for 1 h) [%] | Residual rate at 5 min (%) [2] [%] | Residual rate at 10 min (%) [2] [%] | Residual rate at 20 min (%) [2] [%] | Incidence rate (%) of muscle tremor (SD rats [3]; [7]) [%] | Time of keeping anaesthesia (SD rats [3]; [8]) [min] | Time of complete recovery (SD rats [3]; [9]) | also measured
CC(C)COC(=O)OCOC(=O)c1cncn1[C@H](C)c1ccccc1 [Example 5] | 3.9 ± 2.6 | 6.2 ± 1.2 | 10 | 0 | 0 | 0 | 10 | 3 ± 1.1 | 3.3 ± 2.1 min | –
CCC(C)OC(=O)OCOC(=O)c1cncn1[C@H](C)c1ccccc1.Cl (stereo partly shown) [Example 10] | – | – | – | – | – | – | 0 | 2.5 ± 0.7 | 2.0 ± 0.9 min | –
COC(=O)C1(OC(=O)c2cncn2[C@H](C)c2ccccc2)CC1 [CPMM, reference compound] | – | – | – | 0 | 0 | 0 | – | – | – | Incidence rate (%) of muscle tremor (SD rats [1]; male, SD, rat, in vivo): 90%; Time of complete recovery (SD rats [1]; rat, in vivo): 25 ± 9 min; Wake time after drug withdrawal (SD rats [1]; rat, in vivo): 12 ± 7 min; Incidence rate (%) of muscle tremor (SD rats [3]; male, SD, rat, in vivo, iv): 80%; Onset of anaesthesia (SD rats [3]; rat, in vivo): immediately anesthetize the rats; Time of complete recovery (SD rats [3]; rat, in vivo, iv): 2.3 ± 2.1 min; Time of keeping anaesthesia (SD rats [3]; rat, in vivo, iv): 2.5 ± 1.3 min
COC(=O)CCOC(=O)c1cncn1[C@H](C)c1ccccc1 [MOC-ET, reference compound] | – | – | – | 0 | 0 | 0 | – | – | – | Cortex function of test animals after drug withdrawal (corticosterone; 30 min after drug withdrawal): obviously recovered
CC(C)OC(=O)OCOC(=O)c1cncn1[C@H](C)c1ccccc1 [Example 12] | – | – | – | – | – | – | 0 | 2.2 ± 0.5 | 1.2 ± 0.6 min | –
CC(C)OC(=O)OCOC(=O)c1cncn1[C@H](C)c1ccccc1 [Example 3] | 1.9 ± 0.9 | 3.4 ± 1.1 | 0 | 0 | 0 | 0 | 0 | 2.1 ± 0.3 | 1.3 ± 0.5 min | –
CC(C)OC(=O)OC(C)OC(=O)c1cncn1[C@H](C)c1ccccc1 (stereo partly shown) [Example 8] | 1.8 ± 0.6 | 4.9 ± 2.7 | 10 | 2.1 | 0 | 0 | 10 | 2.3 ± 0.3 | 1.9 ± 1^ min | –
CC[C@H](C)OC(=O)OCOC(=O)c1cncn1[C@H](C)c1ccccc1 [Example 17] | – | – | – | 3.1 | 0 | 0 | 0 | 2.2 ± 0.3 | 1.6 ± 0.2 min | –
CC[C@@H](C)OC(=O)OCOC(=O)c1cncn1[C@H](C)c1ccccc1 [Example 16] | 2.1 ± 0.5 | 4.5 ± 2.2 | 0 | 3.2 | 0 | 0 | 0 | 3.1 ± 0.4 | 2.1 ± 0.5 min | –
CCOC(=O)c1cncn1[C@H](C)c1ccccc1 [Etomidate, reference compound] | 85 ± 29 | 18 ± 10 | 60 | 97.9 | 95.9 | 95.9 | 40 | 6.3 ± 2.8 | 7.2 ± 1.7 min | Minimum effective concentration producing anaesthetic effect in plasma [4]: 200 ng/mL; Minimum effective concentration to inhibit the synthesis of cortical hormones [4]: 8 ng/mL; Time of maintaining the drug concentration of >8 ng/mL in plasma [4]: 8 h; Time of maintaining the drug concentration of >200 ng/mL in plasma [4]: 8 min; Decomposition under the action of liver homogenate of rats ([2]; comparative experiment): slowly decomposed; Onset of anaesthesia (SD rats [3]; equivalent dose of anesthesia): immediately anesthetize the rats; Combining capacity with 11-β hydroxylase relative to GABAA receptor (11-β hydroxylase): 100 times; Effect on self-synthesis of adrenal cortical hormones (corticosterone): significantly suppress
CCC(C)OC(=O)OCOC(=O)c1cncn1[C@H](C)c1ccccc1 (stereo partly shown) [Example 11] | – | – | – | – | – | – | 0 | 2.8 ± 1.1 | 2.1 ± 1.2 min | –
C[C@H](c1ccccc1)n1cncc1C(=O)OCOC(=O)OC(C)(C)C [Example 4] | 90 ± 37 | 25 ± 24 | 20 | 89.3 | 60.1 | 43.6 | 0 | 8.3 ± 1.4 | 6.1 ± 1.6 min | –
COC(=O)OCOC(=O)c1cncn1[C@H](C)c1ccccc1 [Example 1] | 4.1 ± 1.1 | 2.1 ± 1.1 | 0 | 0 | 0 | 0 | 0 | 1.5 ± 0.6 | 1.4 ± 0.5 min | –
CCC(OC(=O)OC(C)C)OC(=O)c1cncn1[C@H](C)c1ccccc1 (stereo partly shown) [Example 28] | 22.5 ± 4.8 | 10.1 ± 2.3 | 0 | 5.3 | 0 | 0 | 0 | 3.5 ± 1.1 | 2.1 ± 0.5 min | –
C[C@H](c1ccccc1)n1cncc1C(=O)OCOC(=O)OC(C(F)(F)F)C(F)(F)F [Example 9] | 55 ± 38 | 20 ± 14 | 0 | 72.1 | 50.3 | 39.8 | 0 | 8.1 ± 2.3 | 7.2 ± 2.9 min | –
CCC(C)OC(=O)OCOC(=O)c1cncn1[C@H](C)c1ccccc1 (stereo partly shown) [Example 6] | 2.1 ± 1.5 | 3.1 ± 1.9 | 0 | 4.7 | 0.9 | 0 | 0 | 2.4 ± 0.6 | 1.7 ± 0.4 min | –
CCOC(=O)OCOC(=O)c1cncn1[C@H](C)c1ccccc1 [Example 2] | 3.1 ± 1.8 | 3.1 ± 1.2 | 0 | 0 | 0 | 0 | 0 | 1 ± 0.5 | 2.5 ± 0.4 min | –
